Columns and labels:
[1] = test system: enteric hemorrhage of each rat; experiment: Test Example 1: inhibition of enteric hemorrhage induced by intravenous lipopolysaccharide (E. coli) in rats; type: in vivo, SD male rats; settings: ip, 30 min before LPS 10 mg/kg i.v., 1 h after LPS, read-out: Inhibition rate; for inhibition in vivo at 12.5 mg/kg: 12.5 mg/kg i.p.; for inhibition in vivo at 25 mg/kg: 25 mg/kg i.p.; for inhibition in vivo at 50 mg/kg: 50 mg/kg i.p.
Experimental: A drug having a test compound dissolved in the form of its Na^+ salt or Cl^- salt in saline or suspended in saline containing 0.5% by weight of carboxymethyl cellulose (manufactured by Nakalai Tesque K. K., hereinafter referred to simply as CMC), was intraperitonially injected to SD male rats of seven weeks old. […] One hour after the injection of the lipopolysaccharide, enteric hemorrhage of each rat was inspected, and the degree of hemorrhage was evaluated by the following ratings:
(§1) 2: Slight subepithelial congestion
(§2) 4: Subepithelial congestion over a wide range and slight submucous congestion
6: Submucous congestion over a wide range, flow out of blood from submucous tissues and necrosis
For the control, the test was conducted in the same manner except that no test compound was added.
The inhibition rate was obtained by the following formula.
(§3) Inhibition rate (%)=(A-B)/A×100
(§4) B: rating of a rat administered with a test compound

DDY male mice = experiment: Test Example 4: survival of mice after intravenous platelet-activating factor (PAF); type: in vivo; settings: 100 mg/kg i.p. 1 h before PAF (10 μg/ml, 15 ml/kg i.v.); 1 h after PAF; control 0% (Nos. 21, 71, 78) or 14% (Nos. 22, 47)
Experimental: A drug having a test compound dissolved in the form of its Na^+ salt or or Cl^- salt in saline or suspended in saline containing 0.5% by weight of CMC, was intraperitonially injected to DDY male mice of five weeks old so that the dose would be 100 mg/kg. One hour after the injection of the drug, a solution (containing 1% by weight of dimethylsulfoxide) having a platelet-activating factor (PAF) dissolved in saline to a concentration of 10 μg/ml, was intravenously injected into the tail vein of each mouse in an amount of 15 ml/kg.
One hour after the injection of PAF, survival or death of each mouse was observed, and the survival rate was obtained by the following formula, whereby with Compound Nos. 21, 47, 71 and 78, the survival rate was 100%, and with Compound No. 22, the survival rate was 80%.
Further, for the control, the test was conducted in the same manner except that no test compound was added, whereby with each control corresponding to the test group for each of Compound Nos. 21, 71 and 78, the survival rate was 0%, and in the case of Compound Nos. 22 and 47, the survival rate of the control was 14%.
(§5) Survival rate (%)=(number of survived animals/number of tested

SD male rats = experiment: Test Example 3: survival of rats after intravenous lipopolysaccharide (E. coli); type: in vivo; settings: 50 mg/kg i.p. 30 min before and again 3 h after LPS 10 mg/kg i.v.; 48 h; control 0%
Experimental: A drug having a test compound suspended in saline containing 0.5% by weight of CMC, was intraperitonially administered to SD male rats of seven weeks old so that the dose would be 50 mg/kg. 30 minutes after the injection of the drug, lipopolysaccharide derived from E. coli (manufactured by Difco Company, Product No. 0127:B8) was intravenously injected into the tail vein of each rat so that the dose would be 10 mg/kg. Three hours after the injection of the lipopolysaccharide, the drug was again intraperitonially administered in the same amount.
as §5

[2] = test system: enteric hemorrhage of each rat; experiment: Test Example 5: inhibition of enteric hemorrhage induced by intravenous PAF in rats; type: in vivo, SD male rats; settings: 12.5 mg/kg i.p. 30 min before PAF (10 μg/ml, 1 ml/kg i.v.); 1 h after PAF
Experimental: A drug having a test compound dissolved in the form of its Na^+ salt or or Cl^- salt in saline or suspended in saline containing 0.5% by weight of CMC, was intraperitonially injected to SD male rats of seven weeks old so that the dose of the test compound would be 12.5 mg/kg. 30 minutes after the injection of the drug, a solution (containing 1% by weight of dimethylsulfoxide) having PAF dissolved in saline to a concentration of 10 μg/ml, was intravenously injected into the tail vein of each rat in an amount of 1 ml/kg.
One hour after the injection of PAF, enteric hemorrhage of each rat was inspected, and the degree of hemorrhage was evaluated by the following ratings:
as §1, §2
6: Submucous congestion over a wide range, flow out of blood from the submucous tissues and necrosis
as §3, §4

[3] = Test Example 2: Acute Toxicity; settings: mouse, in vivo, ip, DDY male mice, five mice per group, read-out: 50% lethal dose LD50
Experimental: Using DDY male mice of five weeks old, each group consisted of five mice. A test compound was suspended in saline containing 0.5% by weight of CMC and intraperitonially injected at a dose of 0.1 ml/10 g. 24 hours after the injection, survival or death was observed, and the number of death/the number of tested animals was obtained, and the 50% lethal dose LD50 was estimated, whereby LD50 of each of Compound Nos. 4, 9, 10, 15, 21, 25, 30, 33, 37, 44, 47, 58, 60 and 67 was at least 100 mg/kg.

SMILES	inhibition in vivo at 12.5 mg/kg [1] [%]	inhibition in vivo at 50 mg/kg [1] [%]	LD50 at 24 h [3] [mg/kg]	also measured
COCc1c(NCc2ccncc2)cnn(C)c1=O [Compound No. 105, 4-methoxymethyl-2-methyl-5-(4-pyridylmethylamino)pyridazin-3-(2H)-one]	92	–	–	–
COC(=O)c1c(NCc2ccncc2)cnn(C(C)(C)C)c1=O [Compound No. 22, 2-tert-butyl-4-methoxycarbonyl-5-(4-pyridylmethylamino)pyridazin-3-(2H)-one]	41	–	–	Survival rate (DDY male mice): 80%; inhibition in vivo at 25 mg/kg [1]: 100%
CCC(=O)Nc1c(NCc2ccncc2)cnn(C(C)(C)C)c1=O [Compound No. 28, 2-tert-butyl-4-propionylamide-5-(4-pyridylmethylamino)pyridazin-3-(2H)-one]	42	83	–	–
CC(C)(C)n1ncc(NCc2ccncc2)c(C=NCc2ccncc2)c1=O [Compound No. 2, 2-tert-butyl-5-(4-pyridylmethylamino)-4-(4-pyridylmethyliminomethylidenyl)pyridazin-3-(2H)-one]	75	–	–	inhibition in vivo at 25 mg/kg [1]: 98%
Cn1ncc(NCc2ccncc2)c(CO)c1=O [Compound No. 70, 4-hydroxymethyl-2-methyl-5-(4-pyridylmethylamino)pyridazin-3-(2H)-one]	72	–	–	Survival rate (SD male rats): 50%
COCc1c(N(C)Cc2ccncc2)cnn(C)c1=O [Compound No. 73, 4-methoxymethyl-2-methyl-5-(N-methyl-4-pyridylmethylamino)pyridazin-3-(2H)-one]	76	–	–	Inhibition rate [2]: 92%; Survival rate (SD male rats): 75%
CC(C)(C)n1ncc(NCc2ccncc2)c(S(C)(=O)=O)c1=O [Compound No. 9, 2-tert-butyl-4-methanesulfonyl-5-(4-pyridylmethylamino)pyridazin-3-(2H)-one]	–	43	≥ 100	–
Cc1c(NC(=O)c2ccncc2)cnn(C(C)(C)C)c1=O [Compound No. 1, 2-tert-butyl-4-methyl-5-(4-pyridylcarbonylamino)pyridazin-3-(2H)-one]	–	–	–	inhibition in vivo at 25 mg/kg [1]: 96%
CSc1c(NCc2ccncc2)cnn(C(C)(C)C)c1=O [Compound No. 7, 2-tert-butyl-4-methylthio-5-(4-pyridylmethylamino)pyridazin-3-(2H)-one]	78	100	–	–
CON=Cc1c(NCc2ccncc2)cnn(C(C)(C)C)c1=O [Compound No. 16, 2-tert-butyl-5-(4-pyridylmethylamino)-4-methoxyiminomethylidenylpyridazin-3-(2H)-one]	–	–	–	inhibition in vivo at 100 mg/kg ([1]; 100 mg/kg i.p.): 100%
CC1CCOC(c2c(NCc3ccncc3)cnn(C(C)(C)C)c2=O)O1 (stereo not shown) [Compound No. 44, 2-tert-butyl-4-(4-methyl-1,3-dioxan-2-yl)-5-(4-pyridylmethylamino)pyridazin-3-(2H)-one]	77	–	≥ 100	–
CC(C)(C)n1ncc(NCc2ccncc2)c(C=O)c1=O [Compound No. 24, 2-tert-butyl-4-formyl-5-(4-pyridylmethylamino) pyridazin-3-(2H)-one]	–	100	–	–
CC(C)(C)n1ncc(NCc2ccncc2)c(N(S(C)(=O)=O)S(C)(=O)=O)c1=O [Compound No. 30, 2-tert-butyl-4-N,N-bis(methanesulfonyl)amino-5-(4-pyridylmethylamino)pyridazin-3-(2H)-one]	–	–	≥ 100	–
CC(C)(C)n1ncc(NCc2ccncc2)c(N)c1=O [Compound No. 10, 4-amino-2-tert-butyl-5-(4-pyridylmethylamino)pyridazin-3-(2H)-one]	50	94	≥ 100	–
C[S+]([O-])c1c(NCc2ccncc2)cnn(C(C)(C)C)c1=O (stereo not shown) [Compound No. 8, 2-tert-butyl-4-methanesulfinyl-5-(4-pyridylmethylamino)pyridazin-3-(2H)-one]	72	–	–	–
CC(=O)N(C)c1c(NCc2ccncc2)cnn(C)c1=O [Compound No. 69, 2-methyl-4-(N-methyl)acetylamino-5-(4-pyridylmethylamino)pyridazin-3-(2H)-one]	78	–	–	Inhibition rate [2]: 100%
CCn1ncc(NCc2ccncc2)c(C#N)c1=O [Compound No. 47, 4-cyano-2-ethyl-5-(4-pyridylmethylamino)pyridazin-3-(2H)-one]	75	–	≥ 100	Survival rate (DDY male mice): 100%
CC(C)(C)n1ncc(NCc2ccncc2)c(C#N)c1=O [Compound No. 21, 2-tert-butyl-4-cyano-5-(4-pyridylmethylamino)pyridazin-3-(2H)-one]	65	100	≥ 100	Survival rate (DDY male mice): 100%; inhibition in vivo at 25 mg/kg [1]: 96%

From patent publication US5763439A, “Pyridazinone derivatives or their salts, processes for their production, and anti-shock agents containing them” (Ishihara Sangyo Kaisha Ltd., priority 1993, dated 1998)
